The test system of the experiment is U-87 MG glioblastoma cells. Kind of experiment: Glioblastoma cell proliferation, DAPI staining of cell nuclei, U-87 MG. The settings on record: 72 h. It counts as cell-based, human. As to the method:
Cell density was measured using DAPI staining of cell nuclei and quantification of fluorescence intensities. n=3 wells per condition. […] STAT3 levels were measured by Western blotting. STAT3 levels were normalized to γ-tubulin levels within each cell lysate and expressed as fold change relative to U-87MG cells. n=4 wells per condition. **p<0.01, ***p<0.001 vs. 0 μM or U-87MG, one-way ANOVA with Dunnett's multiple comparisons test.
Briefly, two complementary methods were used to assess cell proliferation, including the CellTiter-Glo assay and DAPI staining of cell nuclei. The effects of S3QEL2 treatment on A-172, T98G, and U-87 MG cells were measured at different drug concentrations (0, 6, 20, 30, 40, or 50 μM) and time-points after treatment (72 or 96 hours). S3QEL2 inhibits proliferation of A-172 and T98G glioblastoma cells in a highly dose-dependent manner and these effects are similar at different time-points (FIG. 15A-B).

Take `CCCN(CCC)c1ncnc2c1cnn2-c1ccc(C)c(C)c1` [S3QEL2]: the “Cell proliferation (cell density, DAPI staining)” value is given as “but not U-87 MG cells”.
